In test [1] the target is T1, CK1α (Homo sapiens, UniProt P48729+Q96SW2).
T1 construct: effects of the compounds of the present disclosure on the expression of target proteins in cells; endogenous in cells; host or cells: human PBMCs (Milecell Biotechnologies)
Nature of the test: Western blot, degradation of substrate protein in hPBMCs. It is filed as cell-based.

For test [2], the target named is T2, IKZF1 (Homo sapiens, UniProt Q13422+Q96SW2).
T2 construct: effects of the compounds of the present disclosure on the expression of target proteins in cells; endogenous in cells; host or cells: human PBMCs (Milecell Biotechnologies)
The description is as above. It is filed as cell-based.

Test [3] concerns the target T3, IKZF2 (Homo sapiens, UniProt Q96SW2+Q9UKS7).
T3 construct: effects of the compounds of the present disclosure on the expression of target proteins in cells; endogenous in cells; host or cells: human PBMCs (Milecell Biotechnologies)
The description is as above. It is filed as cell-based.

In test [4] the target is T4, IKZF3 (Homo sapiens, UniProt Q96SW2+Q9UKT9).
T4 construct: effects of the compounds of the present disclosure on the expression of target proteins in cells; endogenous in cells; host or cells: human PBMCs (Milecell Biotechnologies)
Described as above. Format: cell-based.

The target of test [5] is T5, WEE1 (Homo sapiens, UniProt P30291+Q96SW2).
T5 construct: effects of the compounds of the present disclosure on the expression of target proteins in cells; endogenous in cells; host or cells: human PBMCs (Milecell Biotechnologies)
The test is described as above. It is filed as cell-based.

The subject of test [6] is GSPT1. The test is described as above. Format: cell-based, Human.
The target in test [7] is T6, human Cereblon WT GST-tagged protein (Homo sapiens, UniProt Q96SW2).
T6 construct: purchased CISBIO 64BDCRBNPEH
Nature of the test: CRBN-binding affinity, HTRF (CEREBLON BINDING kit). The conditions noted are these: for inhibition at 0.5 µM: read-out: Inhibition Rate at 0.5 µM (%); for inhibition at 2 µM: read-out: Inhibition Rate at 2 µM (%).

Test [8] concerns Human multiple myeloma cell (MM.1S). In words: Tumor cell proliferation inhibition (CellTiter-Meiluncell luminescent cell viability assay). The following applies: Homo sapiens, MM1.S, 96 h; for inhibition at 0.01 µM: read-out: Inhibition Rate at 10 nM (%); for inhibition at 0.5 µM: read-out: Inhibition Rate at 500 nM (%).
The test system of test [9] is Human acute T lymphocytic leukemia cell (Molt4). Described as above. The conditions noted are these: MOLT-4, 96 h; for inhibition at 0.01 µM: read-out: Inhibition Rate at 10 nM (%); for inhibition at 0.5 µM: read-out: Inhibition Rate at 500 nM (%).
The subject of test [10] is Human myeloid monocytic leukemia cell (MV-4-11). Described as above. The conditions noted are these: MV4-11, 96 h; for inhibition at 0.01 µM: read-out: Inhibition Rate at 10 nM (%); for inhibition at 0.5 µM: read-out: Inhibition Rate at 500 nM (%).
Test [11] relates to Human acute myeloid leukemia cell line: Kasumi-1. The test is described as above. The following applies: Kasumi 1, 96 h; for inhibition at 0.01 µM: read-out: Inhibition Rate at 10 nM (%); for inhibition at 0.5 µM: read-out: Inhibition Rate at 500 nM (%).
The subject of test [12] is Human T lymphocytic leukemia cell line: Jurkat. The description is as above. The conditions noted are these: 96 h; for inhibition at 0.01 µM: read-out: Inhibition Rate at 10 nM (%); for inhibition at 0.5 µM: read-out: Inhibition Rate at 500 nM (%).
Procedure: (§1) The tumor cells used herein were cultured in a cell culture medium listed in table 2 at 37°C in an incubator with 5% CO2. Prior to experimentation, all cell lines used were correctly identified by STR profiling, and tested negative for mycoplasma contamination using a mycoplasma detection kit through routine screenings.
(§2) The IC50 values of the compounds of the present disclosure (including the compounds in Table 1 and Examples) were determined using the CellTiter-Meiluncell Luminescent Cell Viability Assay Kit from Dalian Meilun Biotech Co., Ltd. The detailed procedure is as follows: Tumor cells were seeded in 96-well cell culture plates at the densities specified in Table 3. On the following day, the test compounds of the present disclosure were subjected to serial dilution. The dilution can be performed according to one of the following two methods: • (1) The first dilution method: The test compounds of the present disclosure (including the compounds in Table 1 and Examples) were subjected to 5-fold serial dilutions starting from a highest concentration of 2000 µM, resulting in a total of 9 concentrations from high to low (2000, 400, 80, 16, 3.2, 0.64, 0.128, 0.0256, 0.00512 µM). Subsequently, 0.5 µL of the test compound dilution was transferred into the 96-well plate containing the cells, with each well containing 100 µL of cell culture medium. […] Into the 96-well plate, the diluted test compounds and corresponding detection reagents were added, resulting in final test compound concentrations of 500 nM and 10 nM, respectively. The experimental procedure is described below using the diluted 2 µM test compound as an example.
(§3) 0.5 µL of the aforementioned diluted compound of the present disclosure (including the compounds in Table 1 and Examples) was added to the seeded cells in 100 µL of medium, yielding a final test compound concentration of 10 nM. After the cells were treated with the compounds of the present disclosure for a specified period, the cell viability assay reagent was added to the culture medium according to the kit's instructions to determine cell viability. […] All controls were treated using the same procedure as the compounds of the present disclosure. The growth inhibition curves for the compounds of the present disclosure were plotted using Prism GraphPad software, and the IC50 values were calculated therefrom.
In test [13] the test system is Human multiple myeloma peripheral blood B lymphocyte cell (RPMI-8226). The test is described as above. The conditions noted are these: RPMI-8226, 96 h.
The subject of test [14] is Human T cell acute lymphoblastic leukemia cell (CCRF-CEM). The test is described as above. The following applies: 96 h; for inhibition at 0.01 µM: read-out: Inhibition Rate at 10 nM (%); for inhibition at 0.5 µM: read-out: Inhibition Rate at 500 nM (%).
Procedure: as §1, §2, §3
[15] abbreviates: Western blot, 24 hours of compound treatment, compounds tested at 50 nM and 500 nM (concentration for the table not stated).
Setting [16] is: 24 hours treatment, compounds at 50 nM and 500 nM (concentration behind the class not stated).

T5 sequence (P30291 whole entry): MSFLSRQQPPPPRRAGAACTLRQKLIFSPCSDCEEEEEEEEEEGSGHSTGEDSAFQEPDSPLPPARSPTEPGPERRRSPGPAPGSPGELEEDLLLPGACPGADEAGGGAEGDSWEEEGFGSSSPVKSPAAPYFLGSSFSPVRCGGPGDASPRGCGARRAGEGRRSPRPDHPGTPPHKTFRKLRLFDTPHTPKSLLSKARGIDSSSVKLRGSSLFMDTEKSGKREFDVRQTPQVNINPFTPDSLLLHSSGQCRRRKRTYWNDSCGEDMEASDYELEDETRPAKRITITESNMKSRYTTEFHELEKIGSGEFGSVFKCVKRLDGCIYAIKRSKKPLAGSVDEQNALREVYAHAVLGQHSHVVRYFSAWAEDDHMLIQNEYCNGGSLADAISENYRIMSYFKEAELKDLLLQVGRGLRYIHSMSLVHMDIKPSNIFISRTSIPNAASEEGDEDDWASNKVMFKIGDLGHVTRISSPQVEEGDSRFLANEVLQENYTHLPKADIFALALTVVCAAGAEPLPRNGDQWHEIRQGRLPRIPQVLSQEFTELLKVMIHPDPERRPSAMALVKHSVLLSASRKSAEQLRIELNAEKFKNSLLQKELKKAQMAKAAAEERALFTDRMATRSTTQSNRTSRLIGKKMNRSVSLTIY
T5 sequence (Q96SW2 whole entry): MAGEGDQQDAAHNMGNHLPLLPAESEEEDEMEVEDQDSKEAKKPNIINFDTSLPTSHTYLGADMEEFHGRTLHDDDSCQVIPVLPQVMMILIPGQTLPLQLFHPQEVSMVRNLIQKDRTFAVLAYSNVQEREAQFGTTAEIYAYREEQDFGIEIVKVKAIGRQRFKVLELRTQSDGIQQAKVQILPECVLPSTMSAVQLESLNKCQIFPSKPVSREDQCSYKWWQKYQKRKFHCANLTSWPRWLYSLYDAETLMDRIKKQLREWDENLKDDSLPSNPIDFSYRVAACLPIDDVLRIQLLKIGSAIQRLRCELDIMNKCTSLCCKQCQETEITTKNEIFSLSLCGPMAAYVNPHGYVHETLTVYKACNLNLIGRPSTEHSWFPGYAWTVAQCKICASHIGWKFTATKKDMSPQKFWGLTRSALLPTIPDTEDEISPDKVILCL
T5 sequence (Q16531 whole entry partner): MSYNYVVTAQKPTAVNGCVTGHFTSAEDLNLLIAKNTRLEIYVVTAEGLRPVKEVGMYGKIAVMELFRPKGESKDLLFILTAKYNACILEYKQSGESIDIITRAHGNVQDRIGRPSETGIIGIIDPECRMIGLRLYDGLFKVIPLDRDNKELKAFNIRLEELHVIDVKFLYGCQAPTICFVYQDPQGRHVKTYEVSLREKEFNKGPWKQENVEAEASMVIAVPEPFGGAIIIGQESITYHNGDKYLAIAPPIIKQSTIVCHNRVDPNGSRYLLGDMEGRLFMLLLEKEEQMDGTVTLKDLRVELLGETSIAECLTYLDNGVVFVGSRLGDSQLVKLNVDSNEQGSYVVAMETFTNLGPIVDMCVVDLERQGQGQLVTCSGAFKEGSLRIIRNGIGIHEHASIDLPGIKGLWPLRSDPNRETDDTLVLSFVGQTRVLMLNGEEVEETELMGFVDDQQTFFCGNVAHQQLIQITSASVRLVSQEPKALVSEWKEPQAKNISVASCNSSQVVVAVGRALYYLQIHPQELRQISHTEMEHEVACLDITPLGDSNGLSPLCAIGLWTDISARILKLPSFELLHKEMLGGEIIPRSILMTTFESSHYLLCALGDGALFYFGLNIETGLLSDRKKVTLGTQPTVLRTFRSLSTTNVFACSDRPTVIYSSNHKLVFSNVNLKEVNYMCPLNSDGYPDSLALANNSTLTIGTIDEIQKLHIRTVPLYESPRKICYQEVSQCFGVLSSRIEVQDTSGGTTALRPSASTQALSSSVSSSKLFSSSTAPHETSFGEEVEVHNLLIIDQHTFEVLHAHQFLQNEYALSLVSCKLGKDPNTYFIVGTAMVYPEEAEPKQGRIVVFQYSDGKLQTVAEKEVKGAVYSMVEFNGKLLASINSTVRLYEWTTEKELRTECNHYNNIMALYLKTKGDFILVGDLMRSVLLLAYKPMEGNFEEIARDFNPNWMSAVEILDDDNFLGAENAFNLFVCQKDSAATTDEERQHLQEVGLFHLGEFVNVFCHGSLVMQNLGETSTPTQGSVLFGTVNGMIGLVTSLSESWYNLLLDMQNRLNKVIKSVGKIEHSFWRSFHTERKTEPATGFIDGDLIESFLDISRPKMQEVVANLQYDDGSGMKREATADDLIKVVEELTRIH
T2 sequence (Q13422 whole entry): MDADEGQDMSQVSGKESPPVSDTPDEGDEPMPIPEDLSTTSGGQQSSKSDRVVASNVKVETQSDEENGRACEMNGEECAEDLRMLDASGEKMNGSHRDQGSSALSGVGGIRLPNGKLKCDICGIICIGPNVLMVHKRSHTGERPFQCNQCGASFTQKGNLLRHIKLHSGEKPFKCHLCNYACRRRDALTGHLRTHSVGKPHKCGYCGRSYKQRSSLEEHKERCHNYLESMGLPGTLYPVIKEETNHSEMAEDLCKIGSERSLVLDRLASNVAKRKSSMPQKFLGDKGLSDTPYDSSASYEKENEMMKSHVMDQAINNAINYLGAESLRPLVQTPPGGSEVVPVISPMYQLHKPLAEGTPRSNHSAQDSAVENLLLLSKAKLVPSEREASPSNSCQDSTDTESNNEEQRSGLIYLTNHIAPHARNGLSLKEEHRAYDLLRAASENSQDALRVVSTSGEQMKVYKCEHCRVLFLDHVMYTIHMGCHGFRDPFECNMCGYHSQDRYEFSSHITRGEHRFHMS
T2 sequence (Q96SW2 whole entry): as the sequence (Q96SW2 whole entry) above
T2 sequence (Q16531 whole entry partner): as the sequence (Q16531 whole entry partner) above
T1 sequence (P48729 whole entry): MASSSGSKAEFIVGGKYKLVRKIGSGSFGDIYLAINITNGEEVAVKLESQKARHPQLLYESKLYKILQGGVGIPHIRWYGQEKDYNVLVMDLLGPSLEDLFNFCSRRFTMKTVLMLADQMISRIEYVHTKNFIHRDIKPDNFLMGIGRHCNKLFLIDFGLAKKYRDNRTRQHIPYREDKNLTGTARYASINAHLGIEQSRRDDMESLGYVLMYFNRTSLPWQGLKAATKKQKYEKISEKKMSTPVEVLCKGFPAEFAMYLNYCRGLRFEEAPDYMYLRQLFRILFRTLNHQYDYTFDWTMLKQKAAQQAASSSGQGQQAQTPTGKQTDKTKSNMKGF
T1 sequence (Q96SW2 whole entry): as the sequence (Q96SW2 whole entry) above
T1 sequence (Q16531 whole entry partner): as the sequence (Q16531 whole entry partner) above
T6 sequence (Q96SW2 whole entry): as the sequence (Q96SW2 whole entry) above
T3 sequence (Q9UKS7 whole entry): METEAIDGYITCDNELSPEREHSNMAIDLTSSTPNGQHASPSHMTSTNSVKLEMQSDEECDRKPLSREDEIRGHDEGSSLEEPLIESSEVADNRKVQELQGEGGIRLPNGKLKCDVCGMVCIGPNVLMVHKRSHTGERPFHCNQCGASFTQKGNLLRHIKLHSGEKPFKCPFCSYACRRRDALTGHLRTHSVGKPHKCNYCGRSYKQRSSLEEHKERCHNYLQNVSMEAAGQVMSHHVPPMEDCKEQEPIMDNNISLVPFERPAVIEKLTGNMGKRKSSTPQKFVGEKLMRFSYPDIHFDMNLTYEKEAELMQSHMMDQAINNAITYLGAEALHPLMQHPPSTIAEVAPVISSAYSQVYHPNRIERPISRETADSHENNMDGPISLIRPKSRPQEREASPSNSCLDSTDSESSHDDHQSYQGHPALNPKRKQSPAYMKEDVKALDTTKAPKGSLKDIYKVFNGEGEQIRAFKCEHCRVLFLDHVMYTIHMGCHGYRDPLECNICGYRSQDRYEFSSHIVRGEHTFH
T3 sequence (Q96SW2 whole entry): as the sequence (Q96SW2 whole entry) above
T3 sequence (Q16531 whole entry partner): as the sequence (Q16531 whole entry partner) above
T4 sequence (Q9UKT9 whole entry): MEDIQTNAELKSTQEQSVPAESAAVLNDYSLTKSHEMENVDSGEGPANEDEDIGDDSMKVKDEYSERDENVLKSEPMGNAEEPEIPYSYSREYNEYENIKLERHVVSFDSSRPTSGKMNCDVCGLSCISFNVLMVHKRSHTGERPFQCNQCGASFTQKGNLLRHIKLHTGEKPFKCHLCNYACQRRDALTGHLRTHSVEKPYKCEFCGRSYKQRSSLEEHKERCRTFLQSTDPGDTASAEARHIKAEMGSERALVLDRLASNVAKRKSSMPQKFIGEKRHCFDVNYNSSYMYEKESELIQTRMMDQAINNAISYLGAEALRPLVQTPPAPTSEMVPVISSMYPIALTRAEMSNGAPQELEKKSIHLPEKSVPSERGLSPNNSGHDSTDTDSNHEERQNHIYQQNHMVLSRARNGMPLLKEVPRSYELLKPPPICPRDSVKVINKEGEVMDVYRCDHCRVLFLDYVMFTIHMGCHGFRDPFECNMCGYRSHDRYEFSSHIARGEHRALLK
T4 sequence (Q96SW2 whole entry): as the sequence (Q96SW2 whole entry) above
T4 sequence (Q16531 whole entry partner): as the sequence (Q16531 whole entry partner) above

`O=C1CCC(N2Cc3cc(CN4CCN(c5cccc(F)c5F)CC4)ccc3C2=S)C(=O)N1` (stereo not shown) [GT-08210, 3-(5-((4-(2,3-difluorophenyl)piperazin-1-yl)methyl)-1-thioxoisoindolin-2-yl)piperidine-2,6-dione]: the “CK1α substrate protein remaining %” value in [1] (setting [15]) is recorded as “B (80%< substrate protein remaining %≤ 100%)”. The “IKZF 1 substrate protein remaining %” value in test [2] (setting [15]) is “A (0% ≤ substrate protein remaining % ≤ 80%)”. Besides, the “IKZF2 substrate protein remaining %” value in test [3] (setting [15]) is “A (0% ≤ substrate protein remaining % ≤ 80%)”. Further, the “IKZF3 substrate protein remaining %” value in [4] (setting [15]) is listed as “A (0% ≤ substrate protein remaining % ≤ 80%)”. Also, in [5] (setting [15]), the “Wee1 substrate protein remaining %” value was “A (0% ≤ substrate protein remaining % ≤ 80%)”. Also, the “GSPT1 substrate protein remaining %” value in test [6] (setting [15]) is “A (0% ≤ substrate protein remaining % ≤ 80%)”. The inhibition at 0.5 µM in [7] was in the range of 60 to 80%; in test [8], 80 to 100%; in test [9], 80 to 100%; in test [10], 80 to 100%; in test [11], 80 to 100%; in test [12], 60 to 70%. Also, the inhibition at 2 µM in test [7] lay in the range of 80 to 100%. Also, the inhibition at 0.01 µM in test [8] was 20 to 30%; in test [9] it was 10 to 20%; in [10] it was 5 to 10%; in test [11], 20 to 30%; in test [12], 20 to 30%.

For the compound `COc1ccccc1N1CCN(Cc2cccc3c2CN(C2CCC(=O)NC2=O)C3=S)CC1` (stereo not shown) [GT-08260, 3-(4-((4-(2-methoxyphenyl)piperazin-1-yl)methyl)-1-thioxoisoindolin-2-yl)piperidine-2,6-dione], the “CK1α substrate protein remaining %” value in [1] (setting [15]) is recorded as “B (80%< substrate protein remaining %≤ 100%)”. Besides, the “IKZF 1 substrate protein remaining %” value in test [2] (setting [15]) was “B (80%< substrate protein remaining %≤ 100%)”. Moreover, in [3] (setting [15]), the “IKZF2 substrate protein remaining %” value is given as “B (80%< substrate protein remaining %≤ 100%)”. In addition, the “IKZF3 substrate protein remaining %” value in test [4] (setting [15]) is listed as “B (80%< substrate protein remaining %≤ 100%)”. Moreover, in test [5] (setting [15]), the “Wee1 substrate protein remaining %” value is “A (0% ≤ substrate protein remaining % ≤ 80%)”. In addition, the “GSPT1 substrate protein remaining %” value in [6] (setting [15]) is “A (0% ≤ substrate protein remaining % ≤ 80%)”. The inhibition at 0.5 µM is 60 to 80% in test [7], 70 to 80% in [13] (read-out: Inhibition Rate at 500 nM (%)) and 40 to 50% in test [14]. Besides, the inhibition at 2 µM in test [7] is 80 to 100%. Moreover, the inhibition at 0.01 µM lay within 70 to 80% in [13] (read-out: Inhibition Rate at 10 nM (%)) and 20 to 30% in [14].

With `O=C1CCC(N2Cc3c(CN4CCN(c5cccc(F)c5)CC4)cccc3C2=S)C(=O)N1` (stereo not shown) [GT-08263, 3-(4-((4-(3-fluorophenyl)piperazin-1-yl)methyl)-1-thioxoisoindolin-2-yl)piperidine-2,6-dione], the “CK1α substrate protein remaining %” value in [1] (setting [15]) was “A (0% ≤ substrate protein remaining % ≤ 80%)”. Moreover, in test [2] (setting [15]), the “IKZF 1 substrate protein remaining %” value is reported as “B (80%< substrate protein remaining %≤ 100%)”. The “IKZF2 substrate protein remaining %” value in test [3] (setting [15]) was “B (80%< substrate protein remaining %≤ 100%)”. Moreover, in test [4] (setting [15]), the “IKZF3 substrate protein remaining %” value is “B (80%< substrate protein remaining %≤ 100%)”. For the same compound, the “Wee1 substrate protein remaining %” value in test [5] (setting [15]) is “A (0% ≤ substrate protein remaining % ≤ 80%)”. The “GSPT1 substrate protein remaining %” value in [6] (setting [15]) is given as “A (0% ≤ substrate protein remaining % ≤ 80%)”. For the same compound, the inhibition at 0.5 µM in test [7] was in the range of 53 to 60%; in test [10], 80 to 100%; in [11], 60 to 70%; in test [12], 30 to 40%. Moreover, the inhibition at 2 µM in test [7] was in the range of 80 to 100%. Moreover, the inhibition at 0.01 µM is 60 to 80% in test [10], 50 to 60% in test [11] and 20 to 30% in test [12].

Consider `CC1(C)CCC(CN2CC3CCC(C2)N3Cc2cccc3c2CN(C2CCC(=O)NC2=O)C3=S)=C(c2ccc(Cl)cc2)C1` (stereo not shown) [GT-08292, 3-(4-((3-((4'-chloro-5,5-dimethyl-3,4,5,6-tetrahydro-[1,1'-biphenyl]-2-yl)methyl)-3,8-diazabicyclo[3.2.1]octan-8-yl)methyl)-1-thioxoisoindolin-2-yl)piperidine-2,6-dione], for which the “CK1α substrate protein remaining %” value in test [1] (setting [15]) is on record as “A (0% ≤ substrate protein remaining % ≤ 80%)”. The “IKZF 1 substrate protein remaining %” value in [2] (setting [15]) is listed as “B (80%< substrate protein remaining %≤ 100%)”. For the same compound, in [3] (setting [15]), the “IKZF2 substrate protein remaining %” value is “B (80%< substrate protein remaining %≤ 100%)”. Further, in test [4] (setting [15]), the “IKZF3 substrate protein remaining %” value was “B (80%< substrate protein remaining %≤ 100%)”. Moreover, the “Wee1 substrate protein remaining %” value in test [5] (setting [15]) is listed as “A (0% ≤ substrate protein remaining % ≤ 80%)”. Besides, the “GSPT1 substrate protein remaining %” value in test [6] (setting [15]) is reported as “A (0% ≤ substrate protein remaining % ≤ 80%)”. Further, the inhibition at 0.5 µM in [7] was in the range of 30 to 40%; in test [10] it was 60 to 80%; in test [11] it was 50 to 60%; in test [12], 30 to 40%. Also, the inhibition at 2 µM in test [7] fell in the range of 60 to 80%. Also, the inhibition at 0.01 µM in [10] fell in the range of 60 to 80%; in [11], 60 to 70%; in test [12], 30 to 40%.

With `O=C1CCC(N2Cc3c(CN4CC=C(c5cccc(F)c5Cl)CC4)cccc3C2=S)C(=O)N1` (stereo not shown) [GT-08301, 3-(4-((4-(2-chloro-3-fluorophenyl)-3,6-dihydropyridin-1(2H)-yl)methyl)-1-thioxoisoindolin-2-yl)piperidine-2,6-dione], in test [1] (setting [15]), the “CK1α substrate protein remaining %” value was “A (0% ≤ substrate protein remaining % ≤ 80%)”. The “IKZF 1 substrate protein remaining %” value in test [2] (setting [15]) is reported as “B (80%< substrate protein remaining %≤ 100%)”. Also, in test [3] (setting [15]), the “IKZF2 substrate protein remaining %” value is on record as “B (80%< substrate protein remaining %≤ 100%)”. In test [4] (setting [15]), the “IKZF3 substrate protein remaining %” value is reported as “B (80%< substrate protein remaining %≤ 100%)”. In addition, the “Wee1 substrate protein remaining %” value in test [5] (setting [15]) is on record as “A (0% ≤ substrate protein remaining % ≤ 80%)”. Further, the “GSPT1 substrate protein remaining %” value in [6] (setting [15]) is “A (0% ≤ substrate protein remaining % ≤ 80%)”. Further, the inhibition at 0.01 µM lay within 40 to 60% in test [10], 50 to 60% in test [11] and 20 to 30% in test [12]. Besides, the inhibition at 0.5 µM in test [10] is 40 to 60%; in test [11] it was 50 to 60%; in test [12], 30 to 40%.

In the case of `Cc1ccc(Sc2ccccc2N2CCN(Cc3cccc4c3CN(C3CCC(=O)NC3=O)C4=S)CC2)c(C)c1` (stereo not shown) [GT-08332, 3-(4-((4-(2-((2,4-dimethylphenyl)thio)phenyl)piperazin-1-yl)methyl)-1-thioxoisoindolin-2-yl)piperidine-2,6-dione], the “CK1α substrate protein remaining %” value in test [1] (setting [16]) was “A (0% ≤ substrate protein remaining % ≤ 80%)”. The “IKZF 1 substrate protein remaining %” value in [2] (setting [16]) is given as “A (0% ≤ substrate protein remaining % ≤ 80%)”. In addition, the “IKZF2 substrate protein remaining %” value in test [3] (setting [16]) is on record as “A (0% ≤ substrate protein remaining % ≤ 80%)”. Also, the “IKZF3 substrate protein remaining %” value in test [4] (setting [16]) is “B (80%< substrate protein remaining %≤ 100%)”. Besides, the “Wee1 substrate protein remaining %” value in test [5] (setting [16]) was “A (0% ≤ substrate protein remaining % ≤ 80%)”. In [6] (setting [16]), the “GSPT1 substrate protein remaining %” value is on record as “A (0% ≤ substrate protein remaining % ≤ 80%)”. Moreover, the inhibition at 0.01 µM is 10 to 20% in [8]; -5 to 0% in [9]; -5 to 0% in test [10]; -5 to 0% in test [14]; -5 to 0% in test [11]; 0 to 5% in test [12]. In addition, the inhibition at 0.5 µM in test [8] was 80 to 100%; in [9] it was 80 to 100%; in test [10] it was 60 to 80%; in test [14] it was 80 to 100%; in [11], 80 to 100%; in test [12], 80 to 100%.

The values above are taken from patent EP4745135A1 (Gluetacs Therapeutics (Shanghai) Co., Ltd., priority 2023, dated 2025).
